Experimental data taken from patent US11839210B1, “Plant growth promoter with strigolactones regulation activities” (King Abdullah University of Science and Technology, priority 2017, dated 2023).

Experiments:
[1] = tested on: wild-type and zas mutant rice seedlings; experiment: Rescue of zas mutant root phenotype, hydroponically grown rice seedlings; format: in vivo, Oryza sativa Nipponbare; conditions: hydroponic, 2.5 μM zaxinone
Method: For rescue of zas mutant phenotype with zaxinone, one week-old seedlings were grown hydroponically in Hoagland nutrient solution containing K2HPO4·2H2O (+Pi) for 3 weeks with 2.5 μM zaxinone treatment or Mock treatment (0.1% acetone). The solution was changed every other day, adding the chemical at each renewal. Plants grown without zaxinone served as the controls and phenotypic data were recorded.
Phenotypic characteristics of hydroponically grown Nipponbare wild-type and zas mutant rice plants were examined to determine the effect of zaxinone treatment on plant growth. Data are means±SD [(FIG. 16A), n=12; (FIG. 16B), n=6; (FIG. 16C), n=4; (FIG. 16D), n=8; Con=Control, Zax=Zaxinone]. Different letters denote significant difference following a One-way ANOVA test (P<0.05).

MAX1-Os900 = experiment: qRT-PCR of MAX1-Os900 gene expression in rice roots after zaxinone treatment; format: in vivo, rice (Oryza sativa Nipponbare); conditions: −Pi, 6 h
Method: For the analysis of SL transcript levels in the zas mutant, one week-old seedlings were grown hydroponically in half-strength modified Hoagland nutrient solution with K2HPO4·2H2O (+Pi) and without K2HPO4·2H2O (−Pi) for 7 days. Seedlings were further treated with zaxinone for 6 h and tissues were collected.
Total RNA was extracted from the roots and shoots using a Qiagen Plant RNeasy Kit according to the manufacturer's instruction. cDNA was synthesized from 1 μg of total RNA using iScript cDNA Synthesis Kit (BIO-RAD Laboratories, Inc, 2000 Alfred Nobel Drive, Hercules, CA, Cat. No #170-8890) according to instructions in the user manual. For mycorrhizal samples, single-strand cDNA was synthesized from 1 μg of total RNA using Super-Script II (Invitrogen) according to instructions in the user manual. Primers used for real-time quantitative RT-PCR (qRT-PCR) analysis are listed below in Table 3. qRT-PCR was performed using SYBR Green Master Mix (Applied Biosystems; www.lifetechnologies.com) in a StepOnePlus (Life Technologies, Carlsbad, CA, USA). For mycorrhizal samples, qRT-PCR was performed using a Rotor-Gene Q 5plex HRM Platform (Qiagen). The 2-ΔCt method was used to calculate the relative gene expression levels and rice Ubiquitin (OsUBQ or OsRubQ1) gene was used as the internal control to normalize target gene expression.
14-day-old rice seedlings were transferred to new hydroponic pots containing fresh media with or without chemicals for 6 hours. SL biosynthetic (D27, D10, D17 and MAX1-Os900) gene expression were determined under −Pi conditions (phosphate deficient) with zaxinone (2.5 and 5 μM) treatment of both Nipponbare wild-type (WT) rice roots and zas mutant rice roots. The expression levels (1301) were detected by quantitative RT-PCR. Ubiquitin was used as a reference gene. Mock treatment (control) treatment consisted of 0.1% acetone. Bars (1302) show comparisons between the treatments and represent mean±SD (n=3). Decrease in SLs levels in the plants treated with zaxinone ranged from approximately 40% to 70%.

Compound: CC(=O)/C=C/C=C(C)/C=C/C1=C(C)C[C@@H](O)CC1(C)C [zaxinone, 3-OH-β-apo-13-carotenone]
- root growth ([1]; wild type plants): increase in root growth
- crown root length ([1]; zas mutant, three weeks, untreated 7-9 cm): 10-11 cm
- root biomass ([1]; zas mutant, three weeks, untreated 12-22 mg DW): 28-35 mg DW
- crown root number ([1]; zas mutant, three weeks, untreated 20-23): 27-32
- decrease of MAX1-Os900 relative expression vs mock (MAX1-Os900; WT rice roots, 2.5 μM zaxinone): approximately 75%
- MAX1-Os900 relative expression (MAX1-Os900; WT rice roots, 2.5 μM zaxinone, WT mock approx. 1.0): approximately 0.25
- decrease of MAX1-Os900 relative expression vs mock (MAX1-Os900; WT rice roots, 5.0 μM zaxinone): ~60%
- MAX1-Os900 relative expression (MAX1-Os900; WT rice roots, 5.0 μM zaxinone, WT mock approx. 1.0): approximately 0.4
- decrease of MAX1-Os900 relative expression vs mock (MAX1-Os900; zas mutant rice roots, 2.5 μM zaxinone): approximately 43%
- MAX1-Os900 relative expression (MAX1-Os900; zas mutant rice roots, 2.5 μM zaxinone, zas mock approx. 2.1): approximately 1.2
- decrease of MAX1-Os900 relative expression vs mock (MAX1-Os900; zas mutant rice roots, 5.0 μM zaxinone): ~57%
- MAX1-Os900 relative expression (MAX1-Os900; zas mutant rice roots, 5.0 μM zaxinone, zas mock approx. 2.1): approximately 0.9
